The values below come from US9688702B2, “Alpha-amino boronic acid derivatives, selective immunoproteasome inhibitors” (Ares Trading S.A, priority 2011, dated 2017).

The target in assay [1] is LMP7 (purified human immuno proteasome) (Homo sapiens, UniProt P28062). The experiment in a line: Determination of LMP7 activity (fluorescence intensity assay, Suc-LLVY-AMC). The format is biochemical. Particulars: for IC50: 40 μM Suc-LLVY-AMC, 37° C. The procedure, abridged: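 Purified human immunoproteasome (0.5 nM or 0.25 nM) preincubated 30 min at 37 °C with compounds (10 μM to 38 pM) in 50 mM Tris pH 7.4, 0.03% SDS. Suc-LLVY-AMC added at 40 μM; after 90 min at 37 °C, fluorescence read at ex 350/em 450 nm.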

In assay [2] the target is Beta5 (purified human constitutive proteasome) (Homo sapiens, UniProt P28074). The experiment in a line: Determination of Beta5 activity (fluorescence intensity assay, Suc-LLVY-AMC). The format is biochemical. The settings on record: purified human constitutive proteasome 1.0 nM, 40 μM Suc-LLVY-AMC, 37° C. An outline of the steps: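 Purified human constitutive proteasome (1.0 nM) was preincubated 30 min at 37 °C with compounds (10 μM to 38 pM) in 50 mM Tris pH 7.4, 0.03% SDS. Suc-LLVY-AMC (40 μM) was then added and fluorescence (ex 350/em 450 nm) read after 90 min at 37 °C.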

Setting [3] is: purified human immuno proteasome 0.5 nM.
[4] abbreviates: purified human immuno proteasome 0.25 nM (examples 79, 80, 83, 84, 85, 87, 88, 89, 90, 91, 93, 94, 96, 97, 101 and 110).

Each structure is given as a SMILES string. Some results are limits rather than exact numbers.

In the case of `O=C(CCn1cnc2ccccc21)N[C@@H](Cc1ccc(F)c(C(F)(F)F)c1)B(O)O` [Example 64, (R)-(1-(3-(1H-benzo[d]imidazol-1-yl)propanamido)-2-(4-fluoro-3-(trifluoromethyl)phenyl)ethyl)boronic acid], the “Selectivity LMP7 vs Beta5” value in assay [1] is reported as “++ (++: 10 < Selectivity < 30)”. Besides, the results for the IC50 in assay [1] (setting [3]) and in assay [2] were less than 50 nM and 50 to 500 nM, respectively.
Taken in the same sequence, the figures for `O=C(CCc1noc(-c2ccccc2)n1)N[C@@H](Cc1cccc(OC(F)(F)F)c1)B(O)O` [Example 60, (R)-(1-(3-(5-phenyl-1,2,4-oxadiazol-3-yl)propanamido)-2-(3-(trifluoromethoxy)phenyl)ethyl)boronic acid] were “++ (++: 10 < Selectivity < 30)”, 50 to 500 nM and 500 to 5000 nM.
Taken in the same sequence, the figures for `Cn1ncc2cc(C[C@H](NC(=O)CCn3cc(-c4ccccc4)nn3)B(O)O)ccc21` [Example 103, (R)-(2-(1-methyl-1H-indazol-5-yl)-1-(3-(4-phenyl-1H-1,2,3-triazol-1-yl)propanamido)ethyl)boronic acid] were “++ (++: 10 < Selectivity < 30)”, less than 50 nM and less than 50 nM.
`CN(CC(=O)N[C@@H](Cc1coc2ccccc12)B(O)O)S(C)(=O)=O` [Example 91, (R)-(2-(benzofuran-3-yl)-1-(2-(N-methylmethylsulfonamido)acetamido)ethyl)boronic acid]: the “Selectivity LMP7 vs Beta5” value in assay [1] is “+++ (+++: Selectivity > 30)”. In addition, the IC50 in assay [1] (setting [4]) is less than 50 nM; in assay [2], 50 to 500 nM.
Regarding `CC(=O)N[C@@H](Cc1ccc2ccccc2c1)B(O)O` [Example 95, (R)-(1-acetamido-2-(naphthalen-2-yl)ethyl)boronic acid], in assay [1], the “Selectivity LMP7 vs Beta5” value is reported as “+++ (+++: Selectivity > 30)”. Further, the IC50 in assay [1] (setting [3]) was in the range of 50 to 500 nM; in assay [2] it was 500 to 5000 nM.
Regarding `O=C(CCn1c(=O)sc2ccccc21)N[C@@H](Cc1coc2ccccc12)B(O)O` [Example 87, (R)-(2-(benzofuran-3-yl)-1-(3-(2-oxobenzo[d]thiazol-3(2H)-yl)propanamido)ethyl)boronic acid], the “Selectivity LMP7 vs Beta5” value in assay [1] is listed as “++ (++: 10 < Selectivity < 30)”. Further, the IC50 in assay [1] (setting [4]) and in assay [2] was less than 50 nM throughout.
On to `COc1cc(C[C@H](NC(=O)CCn2cnc3ccccc32)B(O)O)ccc1F` [Example 69, (R)-(1-(3-(1H-benzo[d]imidazol-1-yl)propanamido)-2-(4-fluoro-3-methoxyphenyl)ethyl)boronic acid], for which, in assay [1], the “Selectivity LMP7 vs Beta5” value is listed as “+ (+: Selectivity < 10)”. For the same compound, the IC50 in assay [1] (setting [3]) lay within 50 to 500 nM; in assay [2] it was 500 to 5000 nM.
With `O=C(N[C@@H](Cc1ccsc1)B(O)O)[C@H]1CCC[C@@H]1C(=O)c1ccccc1` (racemic) [Example 5, [1-({[(1RS,2SR)-2-benzoylcyclopentyl]carbonyl}amino)-2-(3-thienyl)ethyl]boronic acid], the results for the IC50 in assay [1] (setting [3]) and in assay [2] were 500 to 5000 nM and more than 5000 nM, respectively.
As to `COc1ccc2occ(C[C@H](NC(C)=O)B(O)O)c2c1` [Example 108, (R)-(1-acetamido-2-(5-methoxybenzofuran-3-yl)ethyl)boronic acid], the “Selectivity LMP7 vs Beta5” value in assay [1] is listed as “+ (+: Selectivity < 10)”. Moreover, the IC50 in assay [1] (setting [3]) and in assay [2] was more than 5000 nM in each case.
On to `O=C(N[C@@H](Cc1ccsc1)B(O)O)[C@@H](Cc1ccccc1)Cc1cn(-c2ccccc2)nn1` [Example 63, ((R)-1-((S)-2-benzyl-3-(1-phenyl-1H-1,2,3-triazol-4-yl)propanamido)-2-(thiophen-3-yl)ethyl)boronic acid], for which the “Selectivity LMP7 vs Beta5” value in assay [1] is on record as “++ (++: 10 < Selectivity < 30)”. Besides, the IC50 in assay [1] (setting [3]) and in assay [2] was less than 50 nM each time.
